Test results reported in PMC6271477, “Effects of Single Amino Acid Substitution on the Biophysical Properties and Biological Activities of an Amphipathic α-Helical Antibacterial Peptide Against Gram-Negative Bacteria” (Molecules, 2014).

Assays:
[1] = Analytical RP-HPLC retention time as a measure of peptide hydrophobicity; assay type: physicochemical; settings: RP-HPLC at 25 °C, Zorbax 300 SB-C8 column, linear AB gradient, A 0.1% aqueous TFA, B 0.1% TFA in acetonitrile, 1 mL/min, detection at 210 nm
Method: Among substitutions, the retention times ranged from 32.2 min (peptide V16K) to 40.4 min (peptide V16L), which reflect the pure effects of single amino acid substitutions. Thus, the retention times of peptides reflect the relative hydrophobicity of side chains. Consistent with previous studies, the hydrophobicity of peptide analogs was generally in the following order: Lys < Gly < Ser < Ala < Val < Leu. Glu-substituted peptide was an exception, as it contains a negatively-charged side chain and this should decrease the hydrophobicity of the peptide dramatically.
Peptides were analyzed on a Shimadzu LC-20A HPLC using a Zorbax 300 SB-C8 column (150 ° 4.6 mm i.d., 5 μm particle size, 300 Å pore size) from Agilent Technologies using a linear AB gradient and a flow rate of 1 mL/min, where solvents A and B were as described above. Absorbance signals of peptides were detected at 210 nm.

[2] = CD spectroscopy, helicity in benign buffer and in 50% TFE; assay type: physicochemical; settings: for [θ]222, mean residue molar ellipticity, benign / [θ]222, mean residue molar ellipticity, 50% TFE: CD at 222 nm, peptide 75 μM; for [θ]222, mean residue molar ellipticity, benign / [θ]222, mean residue molar ellipticity, 50% TFE / % helix, 50% TFE: 25 °C; for [θ]222, mean residue molar ellipticity, benign: KP buffer (100 mM KCl, 50 mM K2HPO4/KH2PO4, pH 7.0); for [θ]222, mean residue molar ellipticity, 50% TFE / % helix, 50% TFE: KP buffer diluted 1:1 (v/v) with TFE; for % helix, 50% TFE / % helix, benign: relative to the molar ellipticity of peptide V16E in 50% TFE; for % helix, benign: KP buffer pH 7.0, 25 °C
Method: The secondary structures of peptides were determined in benign buffer and in a hydrophobic environment (50% trifluoroethanol, TFE) to mimic the hydrophobic environment of the membrane. […] The principle of side chain interaction at the i to i + 3 and i to i + 4 positions has been used to promote α-helix stability, for example, the incorporation of Lys and Glu residues to stabilize electrostatic attractions. Thus, the helicity of peptide V16E in the presence of 50% TFE that presented the greatest value among all analogs should rely on the contribution of the electrostatic attraction of the side chain of K13 and E16, which stabilizes the helix. The relative helicity is 100% for peptide V16E in 50% TFE, showing the importance of the salt bridges of K13 and E16 to stabilize the helical structure. In general, subtle side-chain alterations by single amino acid substitutions made no significant changes on secondary structures both in aqueous and in hydrophobic environments (Table 2).
Circular dichroism spectra were measured with a 0.02 cm path length quartz cuvette on a Jasco J-810 spectropolarimeter (Jasco, Tokyo, Japan) at 25 °C. Data were collected from 250 to 190 nm at a sensitivity of 100 millidegrees, response time of 1 s, bandwidth of 1.0 nm and a scan speed of 100 nm/min. Peptides were measured at a concentration of 75 μM in a benign buffer (50 mM KH2PO4/K2HPO4, 100 mM KCl, pH 7) or the benign buffer mixed with 50% 2,2,2-trifluoroethanol (TFE). The mean residue molar ellipticities were calculated using the equation [θ] = θ/10lcMn, where θ is the ellipticity in millidegrees, l is the optical path length of the cuvette in centimeters, cM is the peptide concentration in mole/liter and n is the number of residues in the peptide.

E. coli Clinical Isolate = assay type: cell-based; settings: Clinical Isolate, 24 h
Method: (§1) Minimal inhibitory concentrations (MIC) were determined using a broth dilution method. Briefly, bacteria were grown overnight at 37 °C in Mueller–Hinton (MH) Broth, diluted in the same medium and transferred into 96-well microtiter plates (90 μL/well). Peptides were serially diluted using 0.2% bovine serum albumin containing 0.01% acetic acid and added to the microtiter plates in a volume of 10 μL per well to give a final concentration of 5 × 10^5 CFU/mL. MICs were defined as the lowest peptide concentration that inhibited bacterial growth after incubation for 24 h at 37 °C.

E. coli ATCC25922 = assay type: cell-based; settings: ATCC25922, 24 h
Method: as §1

P. aeruginosa H188 = assay type: cell-based; settings: H188, 24 h
Method: as §1

P. aeruginosa ATCC27853 = assay type: cell-based; settings: ATCC27853, 24 h
Method: as §1

E. coli DH5α = experiment: MIC by broth dilution; assay type: cell-based; settings: MH broth, 5 × 10^5 CFU/mL, 24 h at 37 °C
Method: as §1

[3] = Tryptophan fluorescence, binding to lipid vesicles; settings: for Tryptophan fluorescence emission maximum: excitation 280 nm
Method: Upon peptide diffusion into the cytoplasmic membrane, evidence of selective interaction between peptides with bacterial versus mammalian cytoplasmic membrane was illustrated by the binding events of the peptides to anionic or zwitterionic lipid vesicles. […] Lipid/peptide (L/P) ratios were maintained high enough at low peptide concentration (2 μM) in order to mimic the initial steps of peptide-membrane binding. The spectra were recorded as shown in Supplementary Figure S1. […] The significant blue shifts of Δλmax (17 to 23 nm) for all peptides upon exposure to PC/PG vesicles indicated a membrane partition state of Trp in negatively charged vesicles containing 30% anionic lipids (PG).
Unilamellar vesicles were prepared by a standard procedure with either PC/PG (7:3, w/w) or PC/cholesterol (8:1, w/w) as described previously. Briefly, the desired mixtures of lipids were dissolved in a chloroform/methanol mixture (2:1, v/v), dried under nitrogen and then lyophilized for 24 h to remove traces of organic solvent. Dry lipid films were suspended in 10 mM HEPES buffer containing 150 mM NaCl (pH 7.4) by vortex mixing. After five freeze-thawing cycles, the suspension was extruded 15 times through double polycarbonate membranes with 0.1 μm diameter pores on an Avanti mini-extruder apparatus. The lipid concentration was determined by phosphorus analysis as previously reported.
(§2) Fluorescence emission spectra of peptide Trp residues were monitored by a Shimadzu RF-5301 spectrofluorometer. The excitation of wavelength was set as 280 nm and the emission spectra of each peptide, with or without lipid vesicles, were recorded between 300 and 450 nm. Thus three curves were recorded for each peptide, in HEPES buffer or with either PC/PG vesicles or PC/cholesterol vesicles. The blue shift of Trp residues in vesicles were referred to in buffer condition. The final concentrations of peptide and lipid were 2 μM and 100 μM (1/50), respectively.

[4] = Tryptophan fluorescence in HEPES buffer; assay type: physicochemical; settings: peptide 2 μM, excitation 280 nm
Source text: Upon peptide diffusion into the cytoplasmic membrane, evidence of selective interaction between peptides with bacterial versus mammalian cytoplasmic membrane was illustrated by the binding events of the peptides to anionic or zwitterionic lipid vesicles. The repositioning of the tryptophan indole group in an environment of reduced polarity upon membrane binding results in a blue shift in the fluorescence […] maximum coupled with an enhancement of emission intensity. Lipid/peptide (L/P) ratios were maintained high enough at low peptide concentration (2 μM) in order to mimic the initial steps of peptide-membrane binding. The spectra were recorded as shown in Supplementary Figure S1. […] The significant blue shifts of Δλmax (17 to 23 nm) for all peptides upon exposure to PC/PG vesicles indicated a membrane partition state of Trp in negatively charged vesicles containing 30% anionic lipids (PG).
as §2

[5] = PC/PG (7:3, w/w) vesicles versus HEPES buffer, lipid:peptide 50:1, peptide 2 μM
[6] = PC/PG (7:3, w/w) vesicles, lipid and peptide in a molar ratio of 50:1, peptide 2 μM, lipid 100 μM
[7] = PC/cholesterol (8:1, w/w) vesicles versus HEPES buffer, peptide 2 μM, lipid 100 μM
[8] = PC/cholesterol (8:1, w/w) vesicles, peptide 2 μM, lipid 100 μM

| Substance | tR, retention time during RP-HPLC (relative hydrophobicity) [1] [min] | [θ]222, mean residue molar ellipticity, benign [2] | [θ]222, mean residue molar ellipticity, 50% TFE [2] | % helix, 50% TFE [2] [%] | % helix, benign [2] [%] | MIC (E. coli Clinical Isolate) [µg/mL] | MIC (E. coli ATCC25922) [µg/mL] | MIC (P. aeruginosa H188) [µg/mL] | MIC (P. aeruginosa ATCC27853) [µg/mL] | MIC (E. coli DH5α) [µg/mL] | Blue shift in emission maximum [3, 5] [nm] | Tryptophan fluorescence emission maximum [3, 6] [nm] | Blue shift in emission maximum [3, 7] [nm] | Tryptophan fluorescence emission maximum [3, 8] [nm] | Tryptophan fluorescence emission maximum [4] [nm] |
| --- | --- | --- | --- | --- | --- | --- | --- | --- | --- | --- | --- | --- | --- | --- | --- |
| Ac-KWKSFLKTFKSAKKTLLHTALKAISS-NH2 [Peptide V16L] | 40.4 | −3,595 degree·cm^2·dmol^−^1 | −29,803 degree·cm^2·dmol^−^1 | 99.1 | 12.0 | 1 | 1 | 2 | 2 | 4 | 23 | 326 | 2 | 348 | 350 |
| Ac-KWKSFLKTFKSAKKTALHTALKAISS-NH2 [Peptide V16A] | 36.6 | −3,057 degree·cm^2·dmol^−^1 | −28,769 degree·cm^2·dmol^−^1 | 95.7 | 10.2 | 1 | 2 | 4 | 4 | 4 | 22 | 328 | 1 | 349 | 350 |
| Ac-KWKSFLKTFKSAKKTELHTALKAISS-NH2 [Peptide V16E] | 34.6 | −3,465 degree·cm^2·dmol^−^1 | −30,063 degree·cm^2·dmol^−^1 | 100 | 11.5 | 125 | 16 | 64 | 125 | 64 | 17 | 333 | 1 | 349 | 350 |
| Ac-KWKSFLKTFKSAKKTSLHTALKAISS-NH2 [Peptide V16S] | 34.3 | −1,760 degree·cm^2·dmol^−^1 | −28,949 degree·cm^2·dmol^−^1 | 96.3 | 5.9 | 16 | 8 | 4 | 32 | 8 | 22 | 328 | 1 | 349 | 350 |
| Ac-KWKSFLKTFKSAKKTGLHTALKAISS-NH2 [Peptide V16G] | 33.6 | −2,839 degree·cm^2·dmol^−^1 | −27,857 degree·cm^2·dmol^−^1 | 92.7 | 9.4 | 16 | 8 | 8 | 32 | 8 | 21 | 329 | 1 | 349 | 350 |
